pIC50: −log10 of the molar value.
Assays:
[1] = target: T1, full-length human RORγ (Homo sapiens, UniProt P51449); assay: Full-length RORγ luciferase assay (RORE-LUC reporter); type: cell-based; settings: HEK293 cells
T1 construct: Encodes for the full-length human RORγ; expressed in transfected cells; host or cells: HEK293
T1 sequence (P51449 1-518): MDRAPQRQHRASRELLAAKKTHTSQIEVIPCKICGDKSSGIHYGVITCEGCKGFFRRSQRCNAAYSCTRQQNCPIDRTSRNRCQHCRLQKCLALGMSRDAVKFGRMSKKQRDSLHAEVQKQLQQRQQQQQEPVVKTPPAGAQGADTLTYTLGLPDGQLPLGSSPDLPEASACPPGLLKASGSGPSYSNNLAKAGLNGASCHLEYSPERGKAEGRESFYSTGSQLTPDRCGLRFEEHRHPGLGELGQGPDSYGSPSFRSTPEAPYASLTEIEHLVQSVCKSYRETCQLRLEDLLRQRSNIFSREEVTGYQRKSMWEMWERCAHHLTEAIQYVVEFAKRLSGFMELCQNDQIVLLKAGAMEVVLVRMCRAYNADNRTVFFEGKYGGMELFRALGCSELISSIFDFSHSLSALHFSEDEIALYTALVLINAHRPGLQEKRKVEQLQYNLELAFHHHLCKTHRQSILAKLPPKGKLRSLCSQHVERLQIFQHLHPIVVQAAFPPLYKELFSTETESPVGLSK
Protocol: (§1) For luciferase assays, 8 × 10^6 HEK293 cells were seeded on 150 mm cell culture dishes and incubated for 5 h. Afterward, cells were transfected with the calcium phosphate coprecipitation method using 5 μg of the nuclear receptor (Gal4-hRORγ or full-length human RORγ), 5 μg of a luciferase reporter (pTK-MH100 × 4-LUC for Gal4-hRORγ experiments or RORE-LUC for full-length human RORγ experiments) and 3 μg eGFP-N1 (for assessing transfection efficiency) plasmid DNA and incubated overnight. […] The medium was changed the following day, and cells were further incubated for another four to 5 h before trypsin/EDTA was added to detach them from the dishes. […] RLUs were normalized to relative fluorescence units (RFU) to account for differences in cell number and transfection efficiency and then normalized to the vehicle control. Results are expressed as fold activation relative to the vehicle control.
Concentration–response data were analyzed in GraphPad Prism version 10 by three-parameter logistic nonlinear regression, with the Hill slope constrained to a theoretical value of −1.0. An IC50 value was determined only for compounds yielding a statistically reliable fit. […] In these cases, only the maximal inhibition achieved at the highest tested concentration (I max(%) at 5 μM) is reported, calculated as follows: Imax(%)=(1−Bottom/Top)×100 (“top” = baseline activity measured at the lowest concentration, “bottom” = residual activity observed at the highest concentration, corresponding to the maximal inhibitory effect).

[2] = system: HEK293 cells; assay: Resazurin conversion assay in HEK293 cells; type: cell-based, human; settings: 5 μM, 18 h
Protocol: (§2) To check the metabolic activity of cells correlating with cell viability, cells were treated with the vehicle control (0.1% DMSO), digitonin as the positive control for cytotoxicity at 20 μg/mL (HEK293 cells) or 50 μg/mL (EL-4-mRORγt cells), or the compounds of interest at 5 μM for 18 h (HEK293 cells) or 20–24 h (EL-4-mRORγt cells). The next day, the medium was carefully removed and replaced with stripped DMEM without phenol red, containing 10 μg/mL resazurin sodium salt. Cells were incubated for 5 h before RFU values were measured at λem = 590 nm using a spectrophotometer. Cell viability was calculated as follows: Cell viability(%)=100×RFU value after compound treatment/RFU value after vehicle control treatment Cytotoxicity was defined as cell viability under 70% according to the ISO 10993–5 guidelines. Cell viability <90% is explicitly stated in the respective figure.

[3] = system: EL-4-mRORγt cells; assay: Resazurin conversion assay in EL-4-mRORγt cells; type: cell-based, murine; settings: 5 μM, 20-24 h
Protocol: as §2

[4] = target: T2, luciferase (Photinus pyralis, UniProt P08659); assay: Direct luciferase inhibition check (cells transfected only with pTK-MH100 × 4-LUC and eGFP-N1); type: cell-based; settings: 5 μM
T2 construct: expressed in transfected cells; host or cells: HEK293
Protocol: as §1

T2 sequence (P08659 whole entry): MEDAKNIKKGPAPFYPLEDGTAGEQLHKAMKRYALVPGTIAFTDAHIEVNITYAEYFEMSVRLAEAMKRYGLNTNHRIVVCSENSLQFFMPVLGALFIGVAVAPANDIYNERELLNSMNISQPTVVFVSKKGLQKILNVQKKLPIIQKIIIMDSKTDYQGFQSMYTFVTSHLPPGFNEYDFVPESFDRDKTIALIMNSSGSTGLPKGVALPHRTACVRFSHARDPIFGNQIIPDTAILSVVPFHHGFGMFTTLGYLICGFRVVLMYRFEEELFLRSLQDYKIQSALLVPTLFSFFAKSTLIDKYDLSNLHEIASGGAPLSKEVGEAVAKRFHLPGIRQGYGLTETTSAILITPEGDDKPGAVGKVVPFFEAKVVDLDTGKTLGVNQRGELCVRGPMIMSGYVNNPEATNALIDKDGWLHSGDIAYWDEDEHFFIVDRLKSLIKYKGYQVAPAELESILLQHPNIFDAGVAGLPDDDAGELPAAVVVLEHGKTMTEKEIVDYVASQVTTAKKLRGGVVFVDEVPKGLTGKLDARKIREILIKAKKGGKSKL

C=C(C)[C@@H]1CC[C@]2(C(=O)O)CC[C@]3(C)[C@H](CC[C@@H]4[C@@]5(C)C/C(=C/c6ccco6)C(=O)C(C)(C)[C@@H]5CC[C@]43C)[C@@H]12 [Compound 15, (2Z)-2-(2-furanylmethylene)-3-oxolup-20(29)-en-28-oic acid]
Imax(%) at 5 μM, full-length RORγ luciferase assay ([1]; 5 μM): 69% | pIC50 ([1]; 18 h treatment, up to 5 μM, read-out: IC50, full-length RORγ luciferase assay): 6.05 | Cytotoxic effects, resazurin conversion assay [2]: no cytotoxic effects | Cytotoxic effects, resazurin conversion assay [3]: no cytotoxic effects | Inhibition of luciferase enzyme activity [4]: did not inhibit luciferase enzyme activity
